The values below come from patent publication US20040157740A1, “Heterocyclyl phenyl benzyl ethers used as fungicides” (priority 2001, published 2004).

A short description of this series: logP determination by HPLC (EEC Directive 79/831 Annexe V. A8, gradient method). As to conditions: pH 2; read-out: log P (pH 2). Type of series: physicochemical.
Take `Cc1cc(-c2nnnn2C)ccc1O` [1-methyl-5-(3-methyl-4-hydroxyphenyl)tetrazole]: the chromatographic logP amounted to 1.04.
The same measure for `CO/N=C(/C(=O)OC)c1ccccc1COc1ccc(-c2nnn(C)n2)cc1C` [Example 1, methyl 2-[4-(2-methyltetrazol-5-yl)-2-methylphenoxy]methylphenylglyoxylate O-methyl oxime]: 3.08; for `CNC(=O)/C(=N/OC)c1ccccc1COc1ccc(-c2nnn(C)n2)cc1C` [Example 2, N-methyl-2-[4-(2-methyltetrazol-5-yl)-2-methylphenoxy]methylphenylglyoxylamide O-methyl oxime]: 2.58; for `CCc1nc(-c2ccc(OCc3ccccc3/C(=N\OC)C(=O)OC)c(C)c2)no1` [Example 3, methyl 2-[4-(5-ethyl-1,2,4-oxadiazol-3-yl)-2-methylphenoxy]methylphenylglyoxylate O-methyl oxime]: 3.8.
In the case of `CCc1nc(-c2ccc(OCc3ccccc3/C(=N\OC)C(=O)NC)c(C)c2)no1` [Example 4, N-methyl-2-[4-(5-ethyl-1,2,4-oxadiazol-3-yl)-2-methylphenoxy]methylphenylglyoxylamide O-methyl oxime], the chromatographic logP came out at 3.24.
On to `CO/N=C(/C(=O)OC)c1ccccc1COc1ccc(-c2nc(C(F)(F)F)ns2)cc1C` [Example 5, methyl 2-[4-(3-trifluoromethyl-1,2,4-thiadiazol-5-yl)-2-methylphenoxy]methylphenylglyoxylate O-methyl oxime], for which the chromatographic logP is 4.62.
The same measure for `CNC(=O)/C(=N/OC)c1ccccc1COc1ccc(-c2nc(C(F)(F)F)ns2)cc1C` [Example 6, N-methyl-2-[4-(3-trifluoromethyl-1,2,4-thiadiazol-5-yl)-2-methylphenoxy]methylphenylglyoxylamide O-methyl oxime]: 4.08; for `Cc1cc(-c2nnn(C)n2)ccc1O` [Example III-1, 2-methyl-5-(3-methyl-4-hydroxyphenyl)tetrazole]: 1.45; for `CCc1nc(-c2ccc(O)c(C)c2)no1` [Example III-2, 5-ethyl-3-(3-methyl-4-hydroxyphenyl)-1,2,4-oxadiazole]: 2.08.
On to `Cc1cc(-c2nc(C(F)(F)F)ns2)ccc1O` [Example III-3, 3-trifluoromethyl-5-(3-methyl-4-hydroxyphenyl)-1,2,4-thiadiazole], for which the chromatographic logP was determined as 3.1.
With `Cc1cc(-c2nnn(C(C)(C)C)n2)ccc1O` [Example III-4], the chromatographic logP is 2.54.
As for `C#CCn1nnc(-c2ccc(O)c(C)c2)n1` [Example III-5], the chromatographic logP is 1.81.
The same measure for `C#CCn1nnnc1-c1ccc(O)c(C)c1` [Example III-6]: 1.41; for `Cc1cc(-c2nnn(C(F)F)n2)ccc1O` [Example III-7]: 2.18; for `Cc1cc(-c2nnnn2C(F)F)ccc1O` [Example III-8]: 1.75.
As for `COc1ccc(-c2nn[nH]n2)cc1C` [Example V-1, 5-(3-methyl-4-methoxyphenyl)tetrazole], the chromatographic logP worked out at 1.51.
As to `COc1ccc(-c2nnn(C)n2)cc1C` [Example V-2, 2-methyl-5-(3-methyl-4-methoxyphenyl)tetrazole], the chromatographic logP came to 2.38.
The same measure for `COc1ccc(-c2nnn(C(C)(C)C)n2)cc1C` [Example V-3]: 3.78; for `C#CCn1nnnc1-c1ccc(OC)c(C)c1` [Example V-5]: 2.12.
On to `COc1ccc(-c2nnn(C(F)F)n2)cc1C` [Example V-6], for which the chromatographic logP was found to be 3.24.
Turning to `COc1ccc(-c2nnnn2C(F)F)cc1C` [Example V-7], the chromatographic logP turned out to be 2.51.
Consider `CCc1nc(-c2ccc(OC)c(C)c2)no1` [Example V-8], for which the chromatographic logP was 3.19.
With `Cc1cc(-c2nc(C(F)(F)F)ns2)ccc1OCc1ccc(Cl)cc1` [Example V-9, 3-trifluoromethyl-5-[3-methyl-4-(4-chlorobenzyloxy)phenyl]-1,2,4-thiadiazole], the chromatographic logP was 5.78.
Turning to `C#CCn1nnc(-c2ccc(OC)c(C)c2)n1` [Example V-44], the chromatographic logP stood at 2.75.
Regarding `COc1ccc(/C(N)=N/O)cc1C` [Example VII-I, 3-methyl-4-methoxybenzamideoxime], the chromatographic logP stood at 0.36.
